What was measured:
Experiment in all cases: KINOMEscan
Format in all cases: binding
Settings in all cases: 1 μM
ACVR2A = ACVR2A (Homo sapiens, UniProt P27037)
ACVR2B = ACVR2B (Homo sapiens, UniProt Q13705)
AKT2 = AKT2 (Homo sapiens, UniProt P31751)
ALK(L1196M) = ALK(L1196M) (Homo sapiens, UniProt Q9UM73, L1196M)
AXL = AXL (Homo sapiens, UniProt P30530)
BIKE = BIKE (Homo sapiens, UniProt Q9NSY1)
CAMK2B = biological target: T1, CAMK2B (Homo sapiens, UniProt Q13554)
T1 construct: purchased Eurofins DiscoverX Corporation (KINOMEscan)

CSK = CSK (Homo sapiens, UniProt P41240)
CSNK1A1 = CSNK1A1 (Homo sapiens, UniProt P48729)
CSNK1E = biological target: T2, CSNK1E (Homo sapiens, UniProt P49674)
T2 construct: purchased Eurofins DiscoverX Corporation

DAPK1 = biological target: T3, DAPK1 (Homo sapiens, UniProt P53355)
T3 construct: purchased Eurofins DiscoverX Corporation

DCAMKL2 = biological target: T4, DCAMKL2 (Homo sapiens, UniProt Q8N568)
T4 construct: purchased Eurofins DiscoverX Corporation

EGFR(T790M) = EGFR(T790M) (Homo sapiens, UniProt P00533, T790M)
EPHA7 = EPHA7 (Homo sapiens, UniProt Q15375)
EPHB1 = EPHB1 (Homo sapiens, UniProt P54762)
ERBB3 = ERBB3 (Homo sapiens, UniProt P21860)
FAK = FAK (Homo sapiens, UniProt Q05397)
FGFR3 = FGFR3 (Homo sapiens, UniProt P22607)
FLT1 = FLT1 (Homo sapiens, UniProt P17948)
FLT3 = FLT3 (Homo sapiens, UniProt P36888)
FLT3(R834Q) = biological target: T5, FLT3(R834Q) (Homo sapiens, UniProt P36888, R834Q)
T5 construct: purchased Eurofins DiscoverX Corporation

IKK-alpha = biological target: T6, IKK-alpha (Homo sapiens, UniProt O15111)
T6 construct: purchased Eurofins DiscoverX (KINOMEscan)
T6 sequence (O15111 whole entry): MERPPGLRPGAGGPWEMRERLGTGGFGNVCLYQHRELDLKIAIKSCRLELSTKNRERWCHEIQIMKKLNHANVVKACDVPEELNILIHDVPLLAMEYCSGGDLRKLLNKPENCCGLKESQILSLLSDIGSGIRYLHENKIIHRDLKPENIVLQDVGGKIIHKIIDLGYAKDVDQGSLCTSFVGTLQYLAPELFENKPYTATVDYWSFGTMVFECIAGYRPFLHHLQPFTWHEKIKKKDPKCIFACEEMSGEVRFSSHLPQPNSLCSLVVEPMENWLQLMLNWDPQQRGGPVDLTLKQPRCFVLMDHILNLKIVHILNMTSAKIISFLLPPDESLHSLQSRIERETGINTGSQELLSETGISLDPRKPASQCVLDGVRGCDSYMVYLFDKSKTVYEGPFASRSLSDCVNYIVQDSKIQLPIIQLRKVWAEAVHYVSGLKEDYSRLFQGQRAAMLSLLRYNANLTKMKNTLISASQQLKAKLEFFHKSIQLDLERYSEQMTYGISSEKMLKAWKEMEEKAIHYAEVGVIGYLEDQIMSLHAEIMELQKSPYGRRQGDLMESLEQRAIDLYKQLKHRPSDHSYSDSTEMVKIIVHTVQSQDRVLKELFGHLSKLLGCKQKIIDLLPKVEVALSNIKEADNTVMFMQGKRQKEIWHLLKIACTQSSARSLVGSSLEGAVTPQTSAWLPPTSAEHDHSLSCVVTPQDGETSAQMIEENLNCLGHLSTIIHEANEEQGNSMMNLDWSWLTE

INSRR = biological target: T7, INSRR (Homo sapiens, UniProt P14616)
T7 construct: purchased Eurofins DiscoverX (KINOMEscan)

IRAK1 = biological target: T8, IRAK1 (Homo sapiens, UniProt P51617)
T8 construct: purchased Eurofins DiscoverX (KINOMEscan)

LIMK1 = biological target: T9, LIMK1 (Homo sapiens, UniProt P53667)
T9 construct: purchased Eurofins DiscoverX Corporation
T9 sequence (P53667 whole entry): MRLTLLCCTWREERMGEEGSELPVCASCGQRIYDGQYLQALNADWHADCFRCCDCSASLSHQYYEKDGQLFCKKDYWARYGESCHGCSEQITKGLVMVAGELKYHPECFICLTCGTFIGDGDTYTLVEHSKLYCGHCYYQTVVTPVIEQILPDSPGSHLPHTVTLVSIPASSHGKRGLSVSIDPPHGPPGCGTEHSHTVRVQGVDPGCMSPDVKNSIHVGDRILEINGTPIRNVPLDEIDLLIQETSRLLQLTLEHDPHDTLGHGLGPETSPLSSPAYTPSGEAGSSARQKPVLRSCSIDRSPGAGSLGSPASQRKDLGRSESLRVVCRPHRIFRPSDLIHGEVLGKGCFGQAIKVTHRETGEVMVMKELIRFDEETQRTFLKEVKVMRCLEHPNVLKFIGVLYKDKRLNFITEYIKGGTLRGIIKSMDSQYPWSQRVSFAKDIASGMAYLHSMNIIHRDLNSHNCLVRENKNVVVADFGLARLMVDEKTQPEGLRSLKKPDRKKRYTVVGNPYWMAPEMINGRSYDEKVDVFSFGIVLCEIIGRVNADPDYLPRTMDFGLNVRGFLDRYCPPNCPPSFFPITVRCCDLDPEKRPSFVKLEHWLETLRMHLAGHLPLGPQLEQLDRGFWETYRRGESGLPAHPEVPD

LRRK2(G2019S) = biological target: T10, LRRK2(G2019S) (Homo sapiens, UniProt Q5S007, G2019S)
T10 construct: purchased Eurofins DiscoverX Corporation

MET(M1250T) = biological target: T11, MET(M1250T) (Homo sapiens, UniProt P08581, M1250T)
T11 construct: purchased Eurofins DiscoverX Corporation

MTOR = biological target: T12, MTOR (Homo sapiens, UniProt P42345)
T12 construct: purchased Eurofins DiscoverX Corporation

PAK3 = PAK3 (Homo sapiens, UniProt O75914)
PIK3C2G = PIK3C2G (Homo sapiens, UniProt O75747)
PIK3CA(H1047L) = PIK3CA(H1047L) (Homo sapiens, UniProt P42336, H1047L)
Chain of PIK3CA(H1047L) (P42336 whole entry H1047L): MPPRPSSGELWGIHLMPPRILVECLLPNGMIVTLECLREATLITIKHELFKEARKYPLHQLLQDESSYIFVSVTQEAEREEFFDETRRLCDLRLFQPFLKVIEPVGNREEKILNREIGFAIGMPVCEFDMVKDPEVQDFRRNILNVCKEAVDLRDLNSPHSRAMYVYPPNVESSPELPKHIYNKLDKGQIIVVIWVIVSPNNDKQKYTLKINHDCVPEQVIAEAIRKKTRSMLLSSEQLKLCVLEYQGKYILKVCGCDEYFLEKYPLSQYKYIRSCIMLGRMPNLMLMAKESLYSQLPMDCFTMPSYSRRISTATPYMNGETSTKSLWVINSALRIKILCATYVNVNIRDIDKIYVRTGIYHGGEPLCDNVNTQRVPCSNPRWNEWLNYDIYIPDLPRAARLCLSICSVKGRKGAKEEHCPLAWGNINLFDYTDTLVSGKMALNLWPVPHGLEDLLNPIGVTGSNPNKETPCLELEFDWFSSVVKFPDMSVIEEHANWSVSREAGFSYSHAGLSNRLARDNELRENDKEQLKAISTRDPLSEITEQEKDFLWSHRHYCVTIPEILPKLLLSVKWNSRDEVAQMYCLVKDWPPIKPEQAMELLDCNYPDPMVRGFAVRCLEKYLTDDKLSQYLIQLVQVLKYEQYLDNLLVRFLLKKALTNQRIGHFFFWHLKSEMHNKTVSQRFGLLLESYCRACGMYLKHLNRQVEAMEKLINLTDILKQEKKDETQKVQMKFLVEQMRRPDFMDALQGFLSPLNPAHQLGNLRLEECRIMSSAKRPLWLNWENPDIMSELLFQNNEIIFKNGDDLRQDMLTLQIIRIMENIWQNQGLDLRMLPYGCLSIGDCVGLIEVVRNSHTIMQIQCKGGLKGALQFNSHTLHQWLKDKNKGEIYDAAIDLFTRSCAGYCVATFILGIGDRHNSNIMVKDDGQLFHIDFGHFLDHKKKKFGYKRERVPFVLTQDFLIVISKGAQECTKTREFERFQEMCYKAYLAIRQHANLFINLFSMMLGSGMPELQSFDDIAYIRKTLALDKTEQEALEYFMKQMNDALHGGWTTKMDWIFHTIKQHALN

PIK3CA(I800L) = PIK3CA(I800L) (Homo sapiens, UniProt P42336, I800L)
Chain of PIK3CA(I800L) (P42336 whole entry I800L): as the sequence (P42336 whole entry H1047L) above, with I800L, L1047H counted along it

PIM1 = PIM1 (Homo sapiens, UniProt P11309)
PKMYT1 = PKMYT1 (Homo sapiens, UniProt Q99640)
PRKD3 = PRKD3 (Homo sapiens, UniProt O94806)
RET = RET (Homo sapiens, UniProt P07949)
SLK = SLK (Homo sapiens, UniProt Q9H2G2)
TRKA = biological target: T13, TRKA (Homo sapiens, UniProt P04629)
T13 construct: purchased Eurofins DiscoverX Corporation

[1] = biological target: TYK2(JH1domain-catalytic) (Homo sapiens, UniProt P29597)
ULK3 = ULK3 (Homo sapiens, UniProt Q6PHR2)
Chain of ULK3 (Q6PHR2 whole entry): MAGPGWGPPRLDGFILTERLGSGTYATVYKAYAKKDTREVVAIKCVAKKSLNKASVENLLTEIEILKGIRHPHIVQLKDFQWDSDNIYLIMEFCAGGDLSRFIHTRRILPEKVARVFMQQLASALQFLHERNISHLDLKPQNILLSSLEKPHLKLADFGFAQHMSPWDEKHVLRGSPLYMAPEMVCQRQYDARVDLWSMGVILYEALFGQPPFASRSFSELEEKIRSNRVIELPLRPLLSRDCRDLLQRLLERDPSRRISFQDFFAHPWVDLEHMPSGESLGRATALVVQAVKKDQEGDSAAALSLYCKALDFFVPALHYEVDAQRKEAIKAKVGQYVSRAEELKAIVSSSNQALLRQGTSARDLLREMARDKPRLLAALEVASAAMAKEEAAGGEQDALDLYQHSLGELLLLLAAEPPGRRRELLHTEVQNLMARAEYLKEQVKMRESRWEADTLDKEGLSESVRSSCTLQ

YES = YES (Homo sapiens, UniProt P07947)
YSK4 = YSK4 (Homo sapiens, UniProt Q56UN5)

Chain of ALK(L1196M) (Q9UM73 19-1620 L1196M): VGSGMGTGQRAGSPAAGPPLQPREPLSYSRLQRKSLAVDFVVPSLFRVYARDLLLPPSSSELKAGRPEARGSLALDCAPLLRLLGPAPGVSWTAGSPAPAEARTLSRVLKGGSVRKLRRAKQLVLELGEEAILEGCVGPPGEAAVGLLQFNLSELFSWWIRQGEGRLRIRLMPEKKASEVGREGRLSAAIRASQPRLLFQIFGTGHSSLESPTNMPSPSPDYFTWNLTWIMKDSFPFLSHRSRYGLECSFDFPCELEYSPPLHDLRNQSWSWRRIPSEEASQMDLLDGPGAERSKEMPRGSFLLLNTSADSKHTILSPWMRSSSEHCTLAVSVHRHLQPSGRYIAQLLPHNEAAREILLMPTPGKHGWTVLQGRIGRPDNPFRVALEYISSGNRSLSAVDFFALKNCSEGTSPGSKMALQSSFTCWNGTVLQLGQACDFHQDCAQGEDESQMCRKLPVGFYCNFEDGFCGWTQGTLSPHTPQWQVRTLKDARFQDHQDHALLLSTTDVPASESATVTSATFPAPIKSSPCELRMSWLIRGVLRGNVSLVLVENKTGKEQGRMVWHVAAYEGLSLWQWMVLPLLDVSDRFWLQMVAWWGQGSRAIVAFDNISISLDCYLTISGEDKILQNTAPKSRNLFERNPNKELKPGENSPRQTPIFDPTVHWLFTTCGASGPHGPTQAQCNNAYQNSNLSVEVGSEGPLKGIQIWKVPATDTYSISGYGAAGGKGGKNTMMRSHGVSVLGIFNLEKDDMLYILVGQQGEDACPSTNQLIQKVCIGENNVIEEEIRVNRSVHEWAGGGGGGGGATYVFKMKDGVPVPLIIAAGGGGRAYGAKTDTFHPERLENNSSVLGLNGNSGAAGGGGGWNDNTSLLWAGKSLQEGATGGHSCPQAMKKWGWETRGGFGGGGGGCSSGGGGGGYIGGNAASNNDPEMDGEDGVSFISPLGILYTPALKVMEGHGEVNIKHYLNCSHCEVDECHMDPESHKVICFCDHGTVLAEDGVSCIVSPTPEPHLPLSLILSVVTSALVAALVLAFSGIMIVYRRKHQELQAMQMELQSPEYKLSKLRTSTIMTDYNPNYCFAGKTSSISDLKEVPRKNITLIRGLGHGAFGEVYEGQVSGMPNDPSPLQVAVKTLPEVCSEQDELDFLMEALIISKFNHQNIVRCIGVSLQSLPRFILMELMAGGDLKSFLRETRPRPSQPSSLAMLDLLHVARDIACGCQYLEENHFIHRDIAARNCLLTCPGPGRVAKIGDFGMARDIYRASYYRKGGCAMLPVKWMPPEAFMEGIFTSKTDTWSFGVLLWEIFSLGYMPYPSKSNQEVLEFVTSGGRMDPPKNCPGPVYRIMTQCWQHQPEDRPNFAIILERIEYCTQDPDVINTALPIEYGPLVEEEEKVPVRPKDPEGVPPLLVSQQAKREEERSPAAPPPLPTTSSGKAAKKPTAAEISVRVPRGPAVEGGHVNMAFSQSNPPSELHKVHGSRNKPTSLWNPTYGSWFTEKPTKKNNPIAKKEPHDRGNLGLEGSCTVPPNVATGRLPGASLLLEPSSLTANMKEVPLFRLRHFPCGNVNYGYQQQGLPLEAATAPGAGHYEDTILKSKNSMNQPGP
Chain of ACVR2A (P27037 20-513): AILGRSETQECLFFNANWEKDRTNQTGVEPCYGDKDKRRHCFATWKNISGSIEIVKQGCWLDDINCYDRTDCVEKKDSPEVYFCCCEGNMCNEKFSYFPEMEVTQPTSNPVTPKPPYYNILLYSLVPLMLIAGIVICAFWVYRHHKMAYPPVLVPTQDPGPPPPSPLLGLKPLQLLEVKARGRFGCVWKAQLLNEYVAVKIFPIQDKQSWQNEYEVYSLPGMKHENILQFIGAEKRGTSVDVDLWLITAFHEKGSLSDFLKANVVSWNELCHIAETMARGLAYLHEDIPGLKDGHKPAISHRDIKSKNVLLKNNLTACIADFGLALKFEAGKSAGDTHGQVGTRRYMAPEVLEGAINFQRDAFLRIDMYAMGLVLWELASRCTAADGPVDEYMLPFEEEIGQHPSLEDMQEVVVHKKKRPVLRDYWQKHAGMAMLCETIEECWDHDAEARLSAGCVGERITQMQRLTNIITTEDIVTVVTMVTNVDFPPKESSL

**Q.** C=CC(=O)Nc1ccc(OC)c(Nc2cc(-c3[nH]c(CC)nc3-c3cccc(NC(=O)c4cccc5c4NC(=O)c4ccccc4N5)c3)ccn2)c1 [Compound 4] was tested. Which POC (ACVR2A) did it give?
**A.** 77% of control

**Q.** And the POC (ACVR2B)?
**A.** 72% of control

**Q.** What about the POC (AKT2) of the same compound?
**A.** 91% of control

**Q.** And the POC (ALK(L1196M))?
**A.** 89% of control

**Q.** And the POC (AXL)?
**A.** 98% of control

**Q.** And the POC (BIKE)?
**A.** 100% of control

**Q.** What about the POC (CAMK2B) of the same compound?
**A.** 72% of control

**Q.** And the POC (CSK)?
**A.** 14% of control

**Q.** What about the POC (CSNK1A1) of the same compound?
**A.** 56% of control

**Q.** What about the POC (CSNK1E) of the same compound?
**A.** 88% of control

**Q.** And the POC (DAPK1)?
**A.** 86% of control

**Q.** And the POC (DCAMKL2)?
**A.** 100% of control

**Q.** What about the POC (EGFR(T790M)) of the same compound?
**A.** 12% of control

**Q.** And the POC (EPHA7)?
**A.** 100% of control

**Q.** What about the POC (EPHB1) of the same compound?
**A.** 92% of control

**Q.** What about the POC (ERBB3) of the same compound?
**A.** 84% of control

**Q.** What about the POC (FAK) of the same compound?
**A.** 99% of control

**Q.** What about the POC (FGFR3) of the same compound?
**A.** 94% of control

**Q.** And the POC (FLT1)?
**A.** 100% of control

**Q.** And the POC (FLT3)?
**A.** 100% of control

**Q.** And the POC (FLT3(R834Q))?
**A.** 100% of control

**Q.** And the POC (IKK-alpha)?
**A.** 100% of control

**Q.** And the POC (INSRR)?
**A.** 87% of control

**Q.** What about the POC (IRAK1) of the same compound?
**A.** 85% of control

**Q.** And the POC (LIMK1)?
**A.** 79% of control

**Q.** What about the POC (LRRK2(G2019S)) of the same compound?
**A.** 100% of control

**Q.** What about the POC (MET(M1250T)) of the same compound?
**A.** 89% of control

**Q.** What about the POC (MTOR) of the same compound?
**A.** 100% of control

**Q.** What about the POC (PAK3) of the same compound?
**A.** 70% of control

**Q.** What about the POC (PIK3C2G) of the same compound?
**A.** 50% of control

**Q.** What about the POC (PIK3CA(H1047L)) of the same compound?
**A.** 100% of control

**Q.** What about the POC (PIK3CA(I800L)) of the same compound?
**A.** 100% of control

**Q.** And the POC (PIM1)?
**A.** 94% of control

**Q.** What about the POC (PKMYT1) of the same compound?
**A.** 99% of control

**Q.** And the POC (PRKD3)?
**A.** 67% of control

**Q.** What about the POC (RET) of the same compound?
**A.** 99% of control

**Q.** What about the POC (SLK) of the same compound?
**A.** 100% of control

**Q.** And the POC (TRKA)?
**A.** 77% of control

**Q.** What about the POC [1] of the same compound?
**A.** 91% of control

**Q.** What about the POC (ULK3) of the same compound?
**A.** 100% of control

**Q.** And the POC (YES)?
**A.** 20% of control

**Q.** And the POC (YSK4)?
**A.** 88% of control

— paper PMC10879502, “Linking ATP and allosteric sites to achieve superadditive binding with bivalent EGFR kinase inhibitors” (Communications Chemistry, 2024)
